Assay results: ChEMBL document CHEMBL3352182, “Discovery and Development of LX7101, a Dual LIM-Kinase and ROCK Inhibitor for the Treatment of Glaucoma” (ACS Med Chem Lett, 2015)

Columns and labels:
[1] = biological target: T1, LIM domain kinase 2 (Homo sapiens, UniProt P53671); test: Inhibition of human full-length LIMK2 assessed as incorporation of P33 from ATP into biotinylated-cofilin substrate by scintillation counting analysis in presence of 2 uM ATP
[2] = Stability of the compound in 1:1 H2O/MeOH assessed as decomposition measured at 60 degC after 24 hrs by HPLC; assay type: physicochemical
[3] = biological target: T2, Rho-associated protein kinase 1 (Homo sapiens, UniProt Q13464); test: Inhibition of human Rock1 assessed as incorporation of P33 from ATP into biotinylated-cofilin substrate by scintillation counting analysis in presence of 2 uM ATP
[4] = test system: Mus musculus; test: Reduction in dexamethasone-induced ocular hypertensive C57BL/6J-Tyr c-Brd x 129S5/SvEvBrd, F2 generation mouse assessed as intraocular pressure at 5 mg/ml, topical instillation measured after 2 hrs; assay type: functional, Eye
[5] = biological target: LIM domain kinase 1 (Homo sapiens, UniProt P53667); test: Inhibition of human LIMK1 assessed as incorporation of P33 from ATP into biotinylated-cofilin substrate by scintillation counting analysis in presence of 2 uM ATP
[6] = biological target: T3, Rho-associated protein kinase 2 (Homo sapiens, UniProt O75116); test: Inhibition of human Rock2 assessed as incorporation of P33 from ATP into biotinylated-cofilin substrate by scintillation counting analysis in presence of 2 uM ATP
[7] = biological target: T1, LIM domain kinase 2; test: Inhibition of human full-length LIMK2 assessed as incorporation of P33 from ATP into biotinylated-cofilin substrate by scintillation counting analysis in presence of 200 uM ATP
[8] = biological target: T2, Rho-associated protein kinase 1; test: Inhibition of human Rock1 assessed as incorporation of P33 from ATP into biotinylated-cofilin substrate by scintillation counting analysis in presence of 200 uM ATP
[9] = biological target: T3, Rho-associated protein kinase 2; test: Inhibition of human Rock2 assessed as incorporation of P33 from ATP into biotinylated-cofilin substrate by scintillation counting analysis in presence of 200 uM ATP
[10] = biological target: T1, LIM domain kinase 2; test: Binding affinity to human LIMK2
[11] = biological target: T3, Rho-associated protein kinase 2; test: Binding affinity to human Rock2
[12] = Cmax in rat dosed topically; assay type: ADME, organism-based; conditions: in vivo, topical or ocular
[13] = Stability of the compound in aqueous solution formulation at 60 degC after 14 days; assay type: physicochemical; conditions: read-out: Stability

T3 sequence (O75116 whole entry, the tested form may be a part): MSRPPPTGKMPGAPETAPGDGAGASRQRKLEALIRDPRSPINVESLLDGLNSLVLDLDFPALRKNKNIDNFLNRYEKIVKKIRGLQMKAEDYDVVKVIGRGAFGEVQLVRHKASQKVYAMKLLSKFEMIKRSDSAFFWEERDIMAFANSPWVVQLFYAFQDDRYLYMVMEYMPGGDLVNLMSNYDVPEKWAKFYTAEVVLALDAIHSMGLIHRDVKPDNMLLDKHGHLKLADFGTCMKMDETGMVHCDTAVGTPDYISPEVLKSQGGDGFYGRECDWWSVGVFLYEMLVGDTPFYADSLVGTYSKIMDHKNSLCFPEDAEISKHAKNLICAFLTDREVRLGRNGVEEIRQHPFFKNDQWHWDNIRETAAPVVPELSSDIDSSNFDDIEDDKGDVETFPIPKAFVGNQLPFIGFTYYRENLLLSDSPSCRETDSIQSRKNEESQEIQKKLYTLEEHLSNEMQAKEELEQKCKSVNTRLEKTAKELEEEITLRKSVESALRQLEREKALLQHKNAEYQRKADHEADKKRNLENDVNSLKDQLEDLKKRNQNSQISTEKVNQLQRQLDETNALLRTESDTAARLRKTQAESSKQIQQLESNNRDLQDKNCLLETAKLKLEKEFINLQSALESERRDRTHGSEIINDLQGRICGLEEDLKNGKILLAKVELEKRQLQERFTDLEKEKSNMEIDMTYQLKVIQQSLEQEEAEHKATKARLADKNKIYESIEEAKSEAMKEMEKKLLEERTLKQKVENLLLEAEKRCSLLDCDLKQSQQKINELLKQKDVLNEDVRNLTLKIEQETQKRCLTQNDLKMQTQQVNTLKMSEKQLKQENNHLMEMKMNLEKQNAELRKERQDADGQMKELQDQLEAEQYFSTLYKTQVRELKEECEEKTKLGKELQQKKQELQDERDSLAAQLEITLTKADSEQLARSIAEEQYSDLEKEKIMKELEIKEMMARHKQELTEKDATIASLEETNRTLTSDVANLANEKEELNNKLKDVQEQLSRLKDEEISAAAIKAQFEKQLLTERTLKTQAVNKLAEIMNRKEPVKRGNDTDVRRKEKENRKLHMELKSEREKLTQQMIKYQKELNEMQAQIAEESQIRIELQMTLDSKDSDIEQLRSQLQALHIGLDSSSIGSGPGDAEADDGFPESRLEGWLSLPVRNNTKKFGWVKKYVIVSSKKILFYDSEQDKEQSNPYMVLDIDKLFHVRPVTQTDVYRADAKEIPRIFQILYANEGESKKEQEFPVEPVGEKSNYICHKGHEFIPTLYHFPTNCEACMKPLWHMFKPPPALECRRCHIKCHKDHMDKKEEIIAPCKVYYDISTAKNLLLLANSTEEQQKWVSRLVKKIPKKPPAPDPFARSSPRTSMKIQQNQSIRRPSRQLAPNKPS
T1 sequence (P53671 whole entry, the tested form may be a part): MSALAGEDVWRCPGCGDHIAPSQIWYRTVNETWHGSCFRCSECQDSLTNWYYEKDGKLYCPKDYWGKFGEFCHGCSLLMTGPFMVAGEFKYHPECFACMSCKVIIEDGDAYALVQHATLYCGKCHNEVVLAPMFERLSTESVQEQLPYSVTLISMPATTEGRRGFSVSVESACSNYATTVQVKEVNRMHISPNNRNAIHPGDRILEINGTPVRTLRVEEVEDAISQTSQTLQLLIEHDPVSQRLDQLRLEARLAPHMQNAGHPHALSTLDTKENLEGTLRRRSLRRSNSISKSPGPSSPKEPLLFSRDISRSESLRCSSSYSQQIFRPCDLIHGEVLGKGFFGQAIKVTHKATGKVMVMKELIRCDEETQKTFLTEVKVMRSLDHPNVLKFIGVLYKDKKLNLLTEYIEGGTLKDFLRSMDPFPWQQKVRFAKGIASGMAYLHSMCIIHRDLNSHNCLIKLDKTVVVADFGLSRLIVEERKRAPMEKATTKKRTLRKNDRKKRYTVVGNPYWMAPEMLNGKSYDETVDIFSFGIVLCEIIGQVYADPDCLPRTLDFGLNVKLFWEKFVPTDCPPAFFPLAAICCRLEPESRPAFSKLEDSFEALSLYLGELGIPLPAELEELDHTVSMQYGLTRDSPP
T2 sequence (Q13464 whole entry): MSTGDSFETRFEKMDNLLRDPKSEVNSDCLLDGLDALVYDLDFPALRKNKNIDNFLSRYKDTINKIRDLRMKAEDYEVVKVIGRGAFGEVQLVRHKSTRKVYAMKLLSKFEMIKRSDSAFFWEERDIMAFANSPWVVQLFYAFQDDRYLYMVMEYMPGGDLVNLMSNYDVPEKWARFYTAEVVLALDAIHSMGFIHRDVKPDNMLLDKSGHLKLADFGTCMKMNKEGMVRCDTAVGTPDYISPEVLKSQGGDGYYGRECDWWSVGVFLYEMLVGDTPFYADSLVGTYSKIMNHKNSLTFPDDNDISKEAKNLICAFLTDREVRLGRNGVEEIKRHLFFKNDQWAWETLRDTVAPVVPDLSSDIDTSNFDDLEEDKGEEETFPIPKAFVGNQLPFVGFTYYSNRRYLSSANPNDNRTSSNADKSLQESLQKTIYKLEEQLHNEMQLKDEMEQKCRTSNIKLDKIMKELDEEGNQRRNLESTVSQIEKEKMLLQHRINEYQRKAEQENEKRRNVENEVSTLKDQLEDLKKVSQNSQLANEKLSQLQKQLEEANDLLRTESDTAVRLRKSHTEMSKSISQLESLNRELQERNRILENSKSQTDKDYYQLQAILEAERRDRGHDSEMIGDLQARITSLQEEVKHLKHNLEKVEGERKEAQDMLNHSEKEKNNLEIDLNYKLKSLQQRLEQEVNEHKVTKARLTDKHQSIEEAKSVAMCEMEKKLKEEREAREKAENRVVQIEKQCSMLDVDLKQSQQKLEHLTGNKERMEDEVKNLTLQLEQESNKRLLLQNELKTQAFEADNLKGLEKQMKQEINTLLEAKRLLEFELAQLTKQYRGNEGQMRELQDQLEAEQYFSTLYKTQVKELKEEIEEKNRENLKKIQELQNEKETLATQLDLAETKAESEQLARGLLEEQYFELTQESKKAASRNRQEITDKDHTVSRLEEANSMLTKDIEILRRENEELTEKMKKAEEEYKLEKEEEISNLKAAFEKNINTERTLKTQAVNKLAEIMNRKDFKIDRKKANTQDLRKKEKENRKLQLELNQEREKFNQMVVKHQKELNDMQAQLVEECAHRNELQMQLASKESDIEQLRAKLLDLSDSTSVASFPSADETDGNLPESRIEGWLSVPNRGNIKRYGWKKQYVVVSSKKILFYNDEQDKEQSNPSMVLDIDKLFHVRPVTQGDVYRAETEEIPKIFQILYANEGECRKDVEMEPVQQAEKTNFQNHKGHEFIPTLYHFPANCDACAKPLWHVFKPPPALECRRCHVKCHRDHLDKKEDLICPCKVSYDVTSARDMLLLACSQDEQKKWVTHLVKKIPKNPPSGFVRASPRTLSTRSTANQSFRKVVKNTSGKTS
Chain of LIM domain kinase 1 (P53667 whole entry, the tested form may be a part): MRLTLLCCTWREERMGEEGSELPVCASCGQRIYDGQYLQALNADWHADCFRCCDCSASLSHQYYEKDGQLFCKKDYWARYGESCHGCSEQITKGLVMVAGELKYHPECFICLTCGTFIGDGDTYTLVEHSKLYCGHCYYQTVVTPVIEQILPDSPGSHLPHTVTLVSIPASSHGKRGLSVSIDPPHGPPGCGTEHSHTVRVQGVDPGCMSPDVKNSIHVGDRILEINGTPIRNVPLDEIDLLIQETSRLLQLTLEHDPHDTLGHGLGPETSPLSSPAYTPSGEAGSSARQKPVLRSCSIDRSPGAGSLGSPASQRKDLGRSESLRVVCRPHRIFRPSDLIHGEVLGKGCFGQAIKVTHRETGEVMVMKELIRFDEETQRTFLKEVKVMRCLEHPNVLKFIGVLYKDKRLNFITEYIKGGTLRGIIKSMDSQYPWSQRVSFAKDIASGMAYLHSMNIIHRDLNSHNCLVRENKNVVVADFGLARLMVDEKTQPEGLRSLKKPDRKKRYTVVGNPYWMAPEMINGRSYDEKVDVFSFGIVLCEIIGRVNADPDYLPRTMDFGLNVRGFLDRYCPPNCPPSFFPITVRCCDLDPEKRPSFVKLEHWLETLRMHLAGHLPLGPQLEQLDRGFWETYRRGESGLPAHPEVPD

| SMILES | IC50 [1] | also measured |
| --- | --- | --- |
| Cc1c[nH]c2ncnc(N3CCN(C(=O)N[C@@H](C)c4ccccc4)[C@@H](C)C3)c12 | 9.9 nM |  |
| COc1cccc(NC(=O)N2CCN(c3ncnc4[nH]cc(C)c34)C[C@@H]2C)c1 | 2.7 nM |  |
| Cc1c[nH]c2ncnc(N3CCN(C(=O)Nc4ccccc4)[C@@H](C)C3)c12 | 1.2 nM | Stability [2]: Unstable |
| Cc1c[nH]c2ncnc(N3CCN(C(=O)Cc4ccccc4)[C@@H](C)C3)c12 | 660 nM | Stability [2]: Stable |
| Cc1c[nH]c2ncnc(N3CCN(C(=O)N[C@H](C)c4ccccc4)[C@@H](C)C3)c12 | 180 nM |  |
| Cc1c[nH]c2ncnc(N3CCN(C(=O)Nc4cccc(OC(=O)N(C)C)c4)C(C(C)(C)C)C3)c12 (centres undefined) | 26 nM |  |
| Cc1c[nH]c2ncnc(N3CCN4C(=O)N(c5ccccc5)CC4C3)c12 (centres undefined) | > 1000 nM |  |
| Cc1c[nH]c2ncnc(N3CCC(C(=O)Nc4cccc(OC(C)C)c4)CC3)c12 | 330 nM |  |
| C=CCC1(C(=O)Nc2cccc(Cl)c2)CCN(c2ncnc3[nH]cc(C)c23)CC1 | 1.9 nM |  |
| Cc1c[nH]c2ncnc(N3CCC(C)(C(=O)Nc4cccc(C(C)(C)C)c4)CC3)c12 | 3.2 nM |  |
| C=CCC1(C(=O)Nc2cccc(OC(=O)N(C)C)c2)CCN(c2ncnc3[nH]cc(C)c23)CC1 | 2.2 nM |  |
| Cc1c[nH]c2ncnc(N3CCC(C)(C(=O)Nc4cccc(OC(=O)N(C)C)c4)CC3)c12 | 4.8 nM |  |
| Cc1c[nH]c2ncnc(N3CCC(O)(C(=O)Nc4cccc(OC(=O)N(C)C)c4)CC3)c12 | 138 nM |  |
| Cc1c[nH]c2ncnc(N3CCC(C(=O)Nc4cccc(OC(=O)N(C)C)c4)(N(C)C)CC3)c12 | 5.1 nM |  |
| COCCOCC1(C(=O)Nc2cccc(OC(=O)N(C)C)c2)CCN(c2ncnc3[nH]cc(C)c23)CC1 | 2.7 nM | IC50 [3]: > 2800 nM; Activity [4]: -1.8 mmHg |
| Cc1c[nH]c2ncnc(N3CCC(Cc4c[nH]cn4)(C(=O)Nc4cccc(OC(=O)N(C)C)c4)CC3)c12 | 1 nM | IC50 [3]: 514 nM; Activity [4]: -3.5 mmHg |
| Cc1c[nH]c2ncnc(N3CCC(CCN(C)C)(C(=O)Nc4cccc(OC(=O)N(C)C)c4)CC3)c12 | 7.3 nM | IC50 [5]: 134 nM; IC50 [3]: 139 nM; Activity [4]: -3.4 mmHg |
| Cc1c[nH]c2ncnc(N3CC[C@H](C(=O)Nc4cccc(OC(=O)N(C)C)c4)[C@@H](C)C3)c12 (relative stereo) | 210 nM |  |
| Cc1c[nH]c2ncnc(N3CC[C@H](C(=O)Nc4cccc(OC(=O)N(C)C)c4)[C@H](C)C3)c12 (relative stereo) | 110 nM |  |
| Cc1c[nH]c2ncnc(N3CCC(CN)(C(=O)Nc4cccc(OC(=O)N(C)C)c4)CC3)c12 [LX-7101] | 4.3 nM | IC50 [3]: 69 nM; IC50 [6]: 32 nM; IC50 [7]: 7.5 nM; IC50 [8]: 2200 nM; IC50 [9]: 340 nM; Activity [4]: -4.2 mmHg; Kd [10]: < 1000 nM; Kd [11]: < 1000 nM; Cmax [12]: 12 nM; remaining at 336 h [13]: 99% |
